Assay results from US5464835A, “Use for bis-heterocyclic compounds and pharmaceutical compositions containing same” (Harbor Branch Oceanographic Institution, Inc., priority 1994, dated 1995).

Tests used:
[1] = target: bee venom phospholipase A2 (Apis mellifera, UniProt P00630); assay: biochemical; format: biochemical; details: for inhibition at 1 µM: final concentration 1 μM; for inhibition at 1 µM / inhibition at 1.6 µM: read-out: % Inactivation of bee venom phospholipase A2; for inhibition at 1.6 µM: final concentration 1.6 μM
[2] = test system: PMA-induced mouse ear edema; assay: Mouse ear anti-inflammatory assay (topical inhibition of PMA-induced edema); details: for ED50, topical inhibition of PMA-induced mouse ear edema: simultaneous with PMA, 3 h 20 min, Table 2; for ED50, topical inhibition of PMA-induced mouse ear edema / % Inhibition of edema: topical; for % Inhibition of edema: Table 3; for inhibition of PMA-induced edema / anti-inflammatory activity (in words): result in words; for percent inhibition of edema (dose-response): FIG. 2; for percent inhibition of mouse ear edema (dose-response): FIG. 3
Procedure: A. Mouse ear anti-inflammatory assay. The test compound and a known inflammatory agent, phorbol myristate acetate (PMA), are topically applied simultaneously to the left ears of mice. Three hours and 20 minutes following application, the mice are sacrificed. Both left and right ears are removed and standard-sized bores taken. Edema (inflammation) is measured as the difference in weight between left and right ears (Van Arman, C. G. [1974] Clin. Pharmacol. Ther. 16:900-904).

Candida albicans = assay: Antifungal activity against Candida albicans (MIC, RPMI-1640 growth medium); format: cell-based

bee venom phospholipase A2, sequence (P00630 34-167 limits assumed): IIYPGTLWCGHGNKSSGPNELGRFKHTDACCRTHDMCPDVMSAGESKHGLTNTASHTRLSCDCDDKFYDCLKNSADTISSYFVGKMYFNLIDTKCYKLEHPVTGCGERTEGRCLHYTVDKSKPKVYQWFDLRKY

Compound | IC50 [1] | ED50, topical inhibition of PMA-induced mouse ear edema [2] | inhibition at 1 µM ([1]; 1 h) | % Inhibition of edema ([2]; dose 50 μg/ear) | inhibition of PMA-induced edema / anti-inflammatory activity (in words) [2] | further results
C[C@]12CCC(=O)C=C1CC[C@@H]1[C@@H]2[C@@H](O)C[C@@]2(C)[C@H]1CC[C@]2(O)C(=O)CO [Hydrocortisone, reference compound] | > 1000 µM | 20 μg/ear |  |  |  | inactivation of bee venom phospholipase A2 (in words) [1]: inactive
Brc1ccc2c(-c3c[nH]c(-c4c[nH]c5cc(Br)ccc45)n3)c[nH]c2c1 [Nortopsentin A] |  |  | 30% | 98.1% | significant potency | 
COc1ccc2c(c1)c(CC(=O)O)c(C)n2C(=O)c1ccc(Cl)cc1 [Indomethacin, reference compound] | > 1000 µM | 250 μg/ear |  |  |  | inactivation of bee venom phospholipase A2 (in words) [1]: inactive
CC(=O)Oc1ccc2c(C(=O)c3ncc(-c4c[nH]c5ccccc45)[nH]3)c[nH]c2c1 [Topsentin monoacetate] |  |  | 42% | 45.8% | moderate activity | 
O=C(c1nc(-c2c[nH]c3ccccc23)c[nH]1)c1c[nH]c2cc(O)ccc12 [Topsentin] | 0.5 µM | 15 μg/ear | 67% | 70.6% | significant potency | inactivation of bee venom phospholipase A2 (in words) [1]: capable of the inactivation of bee venom phospholipase A2; inhibition at 2 µM ([1]; 1 h, read-out: percent inactivation of bee venom phospholipase A2 (dose-response)): ≤ 80%; percent inhibition of edema (dose-response) ([2]; 100 μg/ear): more than 90%; percent inhibition of edema (dose-response) ([2]; about 12 μg/ear): ~50%; inhibition of PMA-induced edema / anti-inflammatory activity (in words) ([2]; listed as topsentin): greater potency than to the known anti-inflammatories hydrocortisone, indomethacin, and manoalide
CN1CC(c2c[nH]c3c(Br)c(Br)cc(O)c23)NCC1c1c[nH]c2cc(Br)ccc12 (stereo not shown) [Dragmacidin] |  |  | 27% | 64.0% | significant potency | 
CC1=C(CC/C(C)=C/CCC2=CC[C@H](C3=CC(=O)O[C@H]3O)O[C@H]2O)C(C)(C)CCC1 [Manoalide, reference compound] | 0.05 µM | 100 μg/ear |  |  |  | 
CC(=O)Oc1ccc2c(C(=O)c3ncc(-c4c[nH]c5ccccc45)n3C(C)=O)c[nH]c2c1 [Topsentin diacetate, topsentin diacetate] |  |  | 32% | 42.6% | moderate activity | 
O=C1NCC(c2c[nH]c3cc(Br)ccc23)N=C1c1c[nH]c2cc(Br)ccc12 (stereo not shown) [Hamacanthin B] |  |  |  |  |  | inhibition at 1.6 µM ([1]; 1 h): 32%; antifungal activity (in words) (Candida albicans): active components; % Inhibition of edema ([2]; dose 50 μM (so in the source)): 34.0%
O=C(c1nc(-c2c[nH]c3cc(Br)ccc23)c[nH]1)c1c[nH]c2cc(O)ccc12 [Bromotopsentin] |  |  | 33% | 75.4% | significant potency | percent inhibition of mouse ear edema (dose-response) ([2]; 50 μg/ear): about 75%; percent inhibition of mouse ear edema (dose-response) ([2]; approximately 25 μg/ear): about 20%
Brc1ccc2c(-c3nc(-c4c[nH]c5ccccc45)c[nH]3)c[nH]c2c1 [Nortopsentin B, nortopsentin B] |  |  | 27% | 38.2% |  | 
O=C1NC(c2c[nH]c3cc(Br)ccc23)CN=C1c1c[nH]c2cc(Br)ccc12 (stereo not shown) [Hamacanthin A] |  |  |  |  |  | inhibition at 1.6 µM ([1]; 1 h): 37%; antifungal activity (in words) (Candida albicans): active components; % Inhibition of edema ([2]; dose 50 μM (so in the source)): 50.0%
Brc1ccc2c(-c3c[nH]c(-c4c[nH]c5ccccc45)n3)c[nH]c2c1 [Nortopsentin C, nortopsentin C] |  |  | 26% | 70.1% | significant potency | 
